# Experimental data: ChEMBL document CHEMBL1821675, “The selective P-TEFb inhibitor CAN508 targets angiogenesis” (Eur J Med Chem, 2011)
# Tests used:
# Malme-3M = experiment: Cytotoxicity against human MALME-3M cells; assay type: functional
# SF-295 = experiment: Cytotoxicity against human SF295 cells; assay type: functional
# [1] = target: Mitogen-activated protein kinase kinase kinase 9 (Homo sapiens) (UniProt P80192); experiment: Inhibition of MLK1 assessed as residual activity at 10 uM by radioactivity assay in presence of 20 uM ATP
# HOP-62 = experiment: Cytotoxicity against human HOP62 cells; assay type: functional
# IGROV-1 = experiment: Cytotoxicity against human IGROV1 cells; assay type: functional
# [2] = Antiangiogenic activity in VEGF-stimulated HMEC1 assessed as reduction in median length of tube at 20 uM after 16 hrs by photographic analysis; assay type: functional, Homo sapiens, HMEC-1; design: scale not given: the % may be the effect or the level left
# [3] = Antiproliferative activity against HMEC1 cells assessed as decrease in cell viability at 10 to 40 uM within 72 hrs by calcein AM staining-based fluorescence assay; conditions: human, hmec-1, 72 h
# HCC 2998 = experiment: Cytotoxicity against human HCC2998 cells; assay type: functional
# [4] = target: Myosin light chain kinase, smooth muscle (Homo sapiens) (UniProt Q15746); experiment: Inhibition of SmMLCK assessed as residual activity at 10 uM by radioactivity assay in presence of 50 uM ATP
# Sequence of Myosin light chain kinase, smooth muscle (Homo sapiens) (Q15746 whole entry): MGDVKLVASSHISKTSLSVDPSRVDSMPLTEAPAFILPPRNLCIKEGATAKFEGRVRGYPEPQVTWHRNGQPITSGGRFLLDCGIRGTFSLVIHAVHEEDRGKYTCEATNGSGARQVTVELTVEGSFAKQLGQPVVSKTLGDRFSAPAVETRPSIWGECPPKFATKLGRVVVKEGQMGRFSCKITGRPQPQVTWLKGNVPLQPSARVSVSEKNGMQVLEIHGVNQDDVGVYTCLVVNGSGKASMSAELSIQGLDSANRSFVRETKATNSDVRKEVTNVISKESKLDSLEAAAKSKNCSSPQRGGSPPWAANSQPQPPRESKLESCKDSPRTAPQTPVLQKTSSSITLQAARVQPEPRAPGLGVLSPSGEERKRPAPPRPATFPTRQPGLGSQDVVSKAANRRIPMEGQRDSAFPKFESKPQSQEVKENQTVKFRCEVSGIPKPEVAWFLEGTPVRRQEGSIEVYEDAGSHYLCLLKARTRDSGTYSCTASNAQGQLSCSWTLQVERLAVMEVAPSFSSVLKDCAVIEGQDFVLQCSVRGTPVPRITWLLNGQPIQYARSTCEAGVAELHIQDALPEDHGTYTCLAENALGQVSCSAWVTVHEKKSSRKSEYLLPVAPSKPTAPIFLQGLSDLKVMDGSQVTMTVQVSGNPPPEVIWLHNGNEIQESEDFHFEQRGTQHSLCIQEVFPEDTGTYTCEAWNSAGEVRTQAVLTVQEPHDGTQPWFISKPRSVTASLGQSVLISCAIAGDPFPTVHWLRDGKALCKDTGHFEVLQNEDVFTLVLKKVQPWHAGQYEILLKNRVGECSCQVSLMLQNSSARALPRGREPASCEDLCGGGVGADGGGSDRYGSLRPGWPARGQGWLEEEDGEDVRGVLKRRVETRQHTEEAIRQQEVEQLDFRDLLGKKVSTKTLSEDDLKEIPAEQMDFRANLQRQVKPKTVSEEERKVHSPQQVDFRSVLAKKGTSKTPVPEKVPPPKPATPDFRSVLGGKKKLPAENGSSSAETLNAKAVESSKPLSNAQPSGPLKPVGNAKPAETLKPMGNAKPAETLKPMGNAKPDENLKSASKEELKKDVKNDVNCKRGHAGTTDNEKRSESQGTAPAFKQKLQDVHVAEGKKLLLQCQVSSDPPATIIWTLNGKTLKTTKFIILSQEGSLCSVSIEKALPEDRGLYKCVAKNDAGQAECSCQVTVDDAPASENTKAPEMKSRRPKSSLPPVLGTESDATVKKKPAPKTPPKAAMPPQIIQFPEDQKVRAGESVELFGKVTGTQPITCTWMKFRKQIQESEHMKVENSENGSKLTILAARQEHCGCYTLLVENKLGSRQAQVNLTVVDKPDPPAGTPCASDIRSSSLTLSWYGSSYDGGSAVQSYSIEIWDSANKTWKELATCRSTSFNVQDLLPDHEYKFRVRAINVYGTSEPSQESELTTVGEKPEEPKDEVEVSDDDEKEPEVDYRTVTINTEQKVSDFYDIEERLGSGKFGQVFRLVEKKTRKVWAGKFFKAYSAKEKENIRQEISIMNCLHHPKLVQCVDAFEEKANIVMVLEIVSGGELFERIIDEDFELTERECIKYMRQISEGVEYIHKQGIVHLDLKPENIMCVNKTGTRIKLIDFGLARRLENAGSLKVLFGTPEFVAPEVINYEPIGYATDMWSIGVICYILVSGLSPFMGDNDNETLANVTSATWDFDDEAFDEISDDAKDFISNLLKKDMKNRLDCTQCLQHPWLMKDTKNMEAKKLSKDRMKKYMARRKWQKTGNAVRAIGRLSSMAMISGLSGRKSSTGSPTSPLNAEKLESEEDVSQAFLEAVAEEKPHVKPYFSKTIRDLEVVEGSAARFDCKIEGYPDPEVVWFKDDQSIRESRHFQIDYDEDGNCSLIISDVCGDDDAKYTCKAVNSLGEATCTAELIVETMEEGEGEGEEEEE
# HCT-116 = experiment: Cytotoxicity against human HCT116 cells; assay type: functional
# [5] = target: Ephrin type-B receptor 4 (Homo sapiens) (UniProt P54760); experiment: Inhibition of EPH-B4 assessed as residual activity at 10 uM by radioactivity assay in presence of 50 uM ATP
# Sequence of Ephrin type-B receptor 4 (Homo sapiens) (P54760 whole entry): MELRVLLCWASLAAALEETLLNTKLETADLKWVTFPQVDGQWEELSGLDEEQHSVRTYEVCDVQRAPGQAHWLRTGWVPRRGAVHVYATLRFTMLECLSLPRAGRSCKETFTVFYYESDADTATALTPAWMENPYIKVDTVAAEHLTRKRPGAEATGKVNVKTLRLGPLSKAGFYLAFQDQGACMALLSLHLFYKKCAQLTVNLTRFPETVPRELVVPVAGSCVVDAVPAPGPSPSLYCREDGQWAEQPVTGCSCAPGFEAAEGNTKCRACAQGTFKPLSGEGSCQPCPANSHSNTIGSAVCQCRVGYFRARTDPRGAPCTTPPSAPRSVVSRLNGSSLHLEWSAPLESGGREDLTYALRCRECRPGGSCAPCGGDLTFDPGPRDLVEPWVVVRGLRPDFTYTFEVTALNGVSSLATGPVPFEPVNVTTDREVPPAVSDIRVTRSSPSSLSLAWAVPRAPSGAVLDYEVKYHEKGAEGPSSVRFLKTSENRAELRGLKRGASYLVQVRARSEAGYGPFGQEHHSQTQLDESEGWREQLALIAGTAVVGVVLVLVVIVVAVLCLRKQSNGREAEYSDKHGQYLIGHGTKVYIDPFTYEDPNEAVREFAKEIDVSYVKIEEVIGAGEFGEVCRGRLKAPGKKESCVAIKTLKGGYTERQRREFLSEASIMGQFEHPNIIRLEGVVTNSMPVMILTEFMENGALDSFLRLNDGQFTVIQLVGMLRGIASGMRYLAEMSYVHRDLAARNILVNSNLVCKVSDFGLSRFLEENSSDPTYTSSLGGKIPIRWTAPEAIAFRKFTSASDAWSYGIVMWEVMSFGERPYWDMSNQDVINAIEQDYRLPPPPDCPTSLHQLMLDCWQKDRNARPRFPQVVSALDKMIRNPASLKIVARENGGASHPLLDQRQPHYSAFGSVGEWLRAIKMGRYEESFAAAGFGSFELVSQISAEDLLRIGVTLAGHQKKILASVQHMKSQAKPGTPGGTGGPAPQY
# [6] = target: SRSF protein kinase 1 (Homo sapiens) (UniProt Q96SB4); experiment: Inhibition of SRPK1 assessed as residual activity at 10 uM by radioactivity assay in presence of 50 uM ATP
# Sequence of SRSF protein kinase 1 (Homo sapiens) (Q96SB4 whole entry): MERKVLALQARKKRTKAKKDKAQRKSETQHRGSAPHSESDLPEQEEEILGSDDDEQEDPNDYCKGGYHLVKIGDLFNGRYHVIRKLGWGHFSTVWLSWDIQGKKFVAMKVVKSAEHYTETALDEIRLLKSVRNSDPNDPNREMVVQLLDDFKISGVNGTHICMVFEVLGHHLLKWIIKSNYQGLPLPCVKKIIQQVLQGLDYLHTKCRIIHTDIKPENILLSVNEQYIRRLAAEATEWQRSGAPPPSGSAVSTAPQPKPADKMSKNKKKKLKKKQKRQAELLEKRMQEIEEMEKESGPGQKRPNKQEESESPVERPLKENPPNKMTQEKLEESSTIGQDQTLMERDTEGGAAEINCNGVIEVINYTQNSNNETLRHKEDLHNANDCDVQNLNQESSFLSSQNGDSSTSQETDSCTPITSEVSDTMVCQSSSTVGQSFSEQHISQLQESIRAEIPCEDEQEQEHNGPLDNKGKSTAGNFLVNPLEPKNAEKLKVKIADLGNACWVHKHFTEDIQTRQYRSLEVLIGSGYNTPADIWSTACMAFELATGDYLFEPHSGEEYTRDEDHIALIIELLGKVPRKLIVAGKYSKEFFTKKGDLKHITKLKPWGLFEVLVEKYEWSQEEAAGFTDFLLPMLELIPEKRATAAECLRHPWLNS
# [7] = target: Protein kinase C alpha type (Homo sapiens) (UniProt P17252); experiment: Inhibition of PKCalpha assessed as residual activity at 10 uM by radioactivity assay in presence of 20 uM ATP
# BT-549 = experiment: Cytotoxicity against human BT549 cells; assay type: functional
# MCF7 = experiment: Inhibition of RNA synthesis in human MCF7 cells assessed as decrease in [3H] Uridine incorporation after 2 hrs by scintillation counting; assay type: functional, cell-based
# [8] = target: Phosphorylase b kinase gamma catalytic chain, skeletal muscle/heart isoform (Homo sapiens) (UniProt Q16816); experiment: Inhibition of PHKG1 assessed as residual activity at 10 uM by radioactivity assay in presence of 50 uM ATP
# Sequence of Phosphorylase b kinase gamma catalytic chain, skeletal muscle/heart isoform (Homo sapiens) (Q16816 whole entry, looked up, canonical isoform): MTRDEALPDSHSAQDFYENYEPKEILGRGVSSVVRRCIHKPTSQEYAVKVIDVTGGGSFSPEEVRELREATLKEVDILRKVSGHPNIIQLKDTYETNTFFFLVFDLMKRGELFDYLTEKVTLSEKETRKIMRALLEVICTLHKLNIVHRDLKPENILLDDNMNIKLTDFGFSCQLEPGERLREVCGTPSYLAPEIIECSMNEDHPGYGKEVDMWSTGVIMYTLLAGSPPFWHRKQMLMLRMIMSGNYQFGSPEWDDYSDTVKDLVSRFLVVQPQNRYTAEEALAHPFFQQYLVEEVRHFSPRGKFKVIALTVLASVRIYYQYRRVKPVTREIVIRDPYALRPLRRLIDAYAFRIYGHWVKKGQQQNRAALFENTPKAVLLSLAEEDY
# [9] = target: Tyrosine-protein kinase BTK (Homo sapiens) (UniProt Q06187); experiment: Inhibition of BTK assessed as residual activity at 10 uM by radioactivity assay in presence of 50 uM ATP
compound,measurement,setting,value
Nc1n[nH]c(N)c1/N=N/c1ccc(O)cc1,GI50,Malme-3M,24.5 µM
same,GI50,SF-295,23.3 µM
same,Activity,[1],39%
same,GI50,HOP-62,31.8 µM
same,GI50,IGROV-1,20.6 µM
same,Activity,[2],30%
same,Activity,[3],Non-toxic
same,GI50,HCC 2998,29.4 µM
same,Activity,[4],54%
same,GI50,HCT-116,18.9 µM
same,Activity,[5],99%
same,Activity,[6],85%
same,Activity,[7],83%
same,GI50,BT-549,14 µM
same,IC50,MCF7,15 µM
same,Activity,[8],29%
same,Activity,[9],41%
